Activity calls are given as the source filed them. The rule behind the calls is not given here.

Broadly, the IC50 is the point on the concentration scale where inhibition reaches its midpoint.

The first assay has as its system T. cruzi-infected H9C2 cardiomyocytes, high-content imaging. Put plainly: intracellular T. cruzi amastigote inhibition, imaging, H9C2 host cardiomyocytes, host toxicity (AID 1159565).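 Note: infected cells incubated 72 h after plating.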
Conditions: not given
On to `COc1ccc(C(=O)[C@H]2C[C@@H]2CN(Cc2ccccn2)Cc2ccccn2)cc1`, for which the IC50 is 1600 nM.
As to `CC(C)C[C@H](NC(=O)c1ccc(-c2ccccc2)o1)C(=O)NC1(C#N)CC1`, the IC50 was > 50000 nM (inactive).
For the compound `O=C(c1cnn(-c2ccccc2)n1)N1CCCC(n2ccnc2)C1` (stereo not given), the IC50 is 79 nM.
As to `O=[N+]([O-])c1ccc(-c2nnn(-c3cccnc3)n2)o1`, the IC50 is > 50000 nM (inactive).
Still for that read-out and setting: next, `O=C(Cc1ccc2c(c1)CCC2)Nc1n[nH]c(-c2ccccn2)n1`: 10000 nM; `Fc1ccccc1N1C[C@H]2CCN(c3cccnc3)C[C@H]2C1`: 200 nM.
In the case of `Cc1nnnn1-c1cccc(C(=O)N2CCC[C@@]3(C)c4ncncc4CCC23)c1` (stereo not given in full), the IC50 is 320 nM.
Regarding `CC(C)Oc1ccc(C(=O)Nc2ccc(N3CCOCC3)c(Cl)c2)cc1`, the IC50 was 1300 nM.
Still for that read-out and setting: next, `CN(Cc1ccc(F)cc1)c1ccc(OCC(=O)N2CCCCC2c2cccnc2)nn1` (stereo not given): 400 nM; `COc1ccc(-c2ccc3nnc(-c4ccc(O)c(OC)c4)n3c2)cn1`: 3200 nM; `CCn1nccc1CN(C)C(=O)C=Cc1ccc(Cl)cc1`: 320 nM.
Still for that read-out and setting: then `Cc1nc2c(-c3ncn[nH]3)cc(NC(=O)Cc3ccccc3)cn2c1C`, with 1000 nM; and `CCc1nn(-c2ncc(F)c(NC(C)C)n2)c(N)c1C1CCCCC1`, with 3200 nM.
The same measure, in the same setting: next, `CC(C)(C)C(Cn1ccnc1)NC(=O)c1ccc2nc(C3CC3)oc2c1` (stereo not given): 100 nM; `CN(Cc1ccc(C(N)=O)cc1)C(c1ccc(F)cc1)c1cccnc1` (stereo not given): 250 nM.
For the compound `O=C(Nc1nc2ccccc2[nH]1)c1ccc2nc[nH]c2c1`, the IC50 is > 50000 nM (inactive).
As for `O=C(c1cccc(Nc2ncc(-c3ccc4c(c3)OCO4)cn2)c1)N1CCSC1`, the IC50 was 250 nM.
Take `Fc1ccc(OC2CC(NCc3cccc4cn[nH]c34)C2)cc1C(F)(F)F` (stereo not given): the IC50 is 200 nM.
The same measure, in the same setting: next, `COc1ccnc2[nH]cc(-c3cc(C(=O)N[C@H](CO)c4ccccc4)co3)c12`: 20000 nM; `CCCCN(C(=O)c1ccc(NC(=O)C(C)C)cc1)c1ccccc1`: > 50000 nM (inactive).
Same read-out and setting: then `COc1ccc(NS(=O)(=O)c2cc(NC(=O)Cc3ccc(C)cc3)ccc2N2CCOCC2)cc1`, with 5000 nM.
On the same count and under the same terms, next, `Cc1ccccc1CNc1cc(C2CC2)nc(-c2nccn2C)n1`: 790 nM; `COc1ccc(CN(C)Cc2ccncc2)cc1-c1ccc(S(=O)(=O)NC2CCC2)s1`: 630 nM; `O=C1CCCCCC1(Cc1cnc[nH]1)c1ccc(Cl)cc1Cl` (stereo not given): 250 nM.
Turning to `CN(Cc1cc2ccccc2s1)c1ncc2c(N)nc(N)nc2n1`, the IC50 is 3200 nM.
For `OCCCNc1nc(Nc2ccncc2)nc2ccccc12`, the half-inhibitory concentration (IC50) is 1300 nM.
Consider `Cc1cc(C)c(C#N)c(SCC(=O)c2ccc3c(c2)OCO3)n1`, for which the IC50 was 790 nM.
As to `O=C(Nc1ncc([N+](=O)[O-])s1)C1CC1`, the IC50 is 1000 nM.
The same measure, in the same setting: next, `Cc1cccc(N2CCCN(Cc3c[nH]c4ccccc34)CC2)n1`: 400 nM; `COc1ccc(C2C3CCCCC3(O)CCN2CC(=O)Nc2ccc(Cl)cc2Cl)cc1` (stereo not given): 1300 nM.
`Clc1cc(Br)ccc1OCCCCn1ccnc1`: the IC50 was 250 nM.
Still for that read-out and setting: then `CCNc1cc(-c2ccccn2)nc(Nc2ccccc2)n1`, with 3200 nM; and `COc1ccc(NC(=O)c2ccc(NC(=O)CN(c3ccccc3C)S(C)(=O)=O)cc2)cc1`, with 25000 nM; and `COc1ccc(Cl)cc1CC(=O)Nc1n[nH]c(-c2ccccn2)n1`, with > 50000 nM (inactive).
As to `CCN(Cc1cccs1)C(=O)CSc1nnc(-c2ccc3c(c2)OCO3)o1`, the IC50 was 2500 nM.
As for `N#Cc1ccc(S(=O)(=O)N2CCN(Cc3cccc(-c4ccncc4)c3)CC2)cc1`, the IC50 is 250 nM.
On the same count and under the same terms, next, `CC(C)(C)C(=O)NCCc1csc(-c2ccc(F)cc2)n1`: 3200 nM; `c1ccc(CNc2cccc3ccncc23)cc1`: 6300 nM; `O=C(Nc1ccc(Br)c(Cl)c1)Nc1ccc2c(c1)OCO2`: 5000 nM.
`O=c1ccc2ccc(F)c3c2n1C[C@H]3CN1CCN(CC(O)c2cc3c(cn2)OCS3)CC1` (stereo not given in full): the IC50 is 630 nM.
The same measure, in the same setting: next, `Cc1ccc2c(c1)SC(C(=O)Nc1n[nH]c(-c3ccccn3)n1)C2` (stereo not given): 7900 nM; `Cc1ccc(Nc2nc(-c3ccccn3)cc(N3CCCC(O)C3)n2)cc1` (stereo not given): 6300 nM.
Take `CN(C)S(=O)(=O)c1cccc(C(=O)Nc2nc(-c3ccccn3)cs2)c1`: the IC50 was 1600 nM.
Same read-out and setting: next, `c1cncc(CN(Cc2ccco2)Cc2cn[nH]c2-c2cccs2)c1`: 50 nM; `CCN(CC)c1nc(Nc2ccncc2)nc2ccccc12`: 79 nM; `CC(=O)Nc1ccc(-c2ccnc(Nc3cccc(C#N)c3)n2)cc1`: 6300 nM.
Same read-out and setting: next, `CCNc1cc(-c2ccccn2)nc(Nc2ccc(OC)cc2)n1`: 3200 nM; `O=C(CSc1nnc2ccc(-c3ccc(F)cc3)nn12)N1CCCCC1`: 2000 nM.
Still for that read-out and setting: then `Clc1ccc(C(CC2CCCCO2)Cn2cncn2)c(Cl)c1` (stereo not given), with 1300 nM; and `O=C(Nc1ccc(C(F)(F)F)cc1)NC1(C(=O)NCc2ccco2)CCCCC1`, with > 50000 nM (inactive); and `O=C(Nc1nc(-c2ccccn2)cs1)C1CCc2ccccc2C1` (stereo not given), with 2500 nM.
In the case of `O=C(Nc1n[nH]c(-c2ccccn2)n1)C1CC1c1ccccc1` (stereo not given), the IC50 is 20000 nM.
Turning to `CC(C)(C)CC(=O)NCCc1csc(-c2ccc(F)cc2)n1`, the IC50 is 1000 nM.
Still for that read-out and setting: then `NCC(Cc1ccccc1)NC(=O)c1cnc(-c2c[nH]c3ncccc23)s1` (stereo not given), with > 50000 nM (inactive); and `COc1cccc(NS(=O)(=O)c2ccc3[nH]cc(C(=O)NCCC(C)C)c(=O)c3c2)c1`, with 32000 nM.
Turning to `Cc1[nH]nc(-c2nc3ccccc3[nH]2)c1C(=O)NC1CCCNC1` (stereo not given), the IC50 is 63 nM.
The same measure, in the same setting: next, `N#Cc1cc(N2CCCC2=O)ccc1Sc1ccccc1CO`: 400 nM.

Staying with this assay, now noted: measured here: H9C2 host cell toxicity.
As to `COc1ccc(C(=O)[C@H]2C[C@@H]2CN(Cc2ccccn2)Cc2ccccn2)cc1`, the IC50 was 25000 nM.
On the same count and under the same terms, next, `CC(C)C[C@H](NC(=O)c1ccc(-c2ccccc2)o1)C(=O)NC1(C#N)CC1`: more than 50000 nM; `O=C(c1cnn(-c2ccccc2)n1)N1CCCC(n2ccnc2)C1` (stereo not given): more than 50000 nM.
On to `O=[N+]([O-])c1ccc(-c2nnn(-c3cccnc3)n2)o1`, for which the IC50 stood at 6300 nM.
`O=C(Cc1ccc2c(c1)CCC2)Nc1n[nH]c(-c2ccccn2)n1` yielded an IC50 of more than 50000 nM.
Consider `Fc1ccccc1N1C[C@H]2CCN(c3cccnc3)C[C@H]2C1`, for which the IC50 was more than 50000 nM.
Same read-out and setting: next, `Cc1nnnn1-c1cccc(C(=O)N2CCC[C@@]3(C)c4ncncc4CCC23)c1` (stereo not given in full): more than 50000 nM; `CC(C)Oc1ccc(C(=O)Nc2ccc(N3CCOCC3)c(Cl)c2)cc1`: more than 50000 nM.
The same measure, in the same setting: then `CN(Cc1ccc(F)cc1)c1ccc(OCC(=O)N2CCCCC2c2cccnc2)nn1` (stereo not given), with more than 50000 nM; and `COc1ccc(-c2ccc3nnc(-c4ccc(O)c(OC)c4)n3c2)cn1`, with more than 50000 nM.
Same read-out and setting: then `CCn1nccc1CN(C)C(=O)C=Cc1ccc(Cl)cc1`, with more than 50000 nM.
`Cc1nc2c(-c3ncn[nH]3)cc(NC(=O)Cc3ccccc3)cn2c1C`: the IC50 was 6300 nM.
Same read-out and setting: next, `CCc1nn(-c2ncc(F)c(NC(C)C)n2)c(N)c1C1CCCCC1`: 1000 nM.
In turn, `CC(C)(C)C(Cn1ccnc1)NC(=O)c1ccc2nc(C3CC3)oc2c1` (stereo not given) gave an IC50 of more than 50000 nM.
On the same count and under the same terms, then `CN(Cc1ccc(C(N)=O)cc1)C(c1ccc(F)cc1)c1cccnc1` (stereo not given), with more than 50000 nM; and `O=C(Nc1nc2ccccc2[nH]1)c1ccc2nc[nH]c2c1`, with more than 50000 nM.
Take `O=C(c1cccc(Nc2ncc(-c3ccc4c(c3)OCO4)cn2)c1)N1CCSC1`: the IC50 stood at 1000 nM.
Turning to `Fc1ccc(OC2CC(NCc3cccc4cn[nH]c34)C2)cc1C(F)(F)F` (stereo not given), the IC50 turned out to be 7900 nM.
For `COc1ccnc2[nH]cc(-c3cc(C(=O)N[C@H](CO)c4ccccc4)co3)c12`, the IC50 came out at 320 nM.
The same measure, in the same setting: then `CCCCN(C(=O)c1ccc(NC(=O)C(C)C)cc1)c1ccccc1`, with more than 50000 nM.
Same read-out and setting: next, `COc1ccc(NS(=O)(=O)c2cc(NC(=O)Cc3ccc(C)cc3)ccc2N2CCOCC2)cc1`: more than 50000 nM; `Cc1ccccc1CNc1cc(C2CC2)nc(-c2nccn2C)n1`: 790 nM; `COc1ccc(CN(C)Cc2ccncc2)cc1-c1ccc(S(=O)(=O)NC2CCC2)s1`: 10000 nM.
For the compound `O=C1CCCCCC1(Cc1cnc[nH]1)c1ccc(Cl)cc1Cl` (stereo not given), the IC50 is more than 50000 nM.
Regarding `CN(Cc1cc2ccccc2s1)c1ncc2c(N)nc(N)nc2n1`, the IC50 is 20000 nM.
The compound `OCCCNc1nc(Nc2ccncc2)nc2ccccc12` displayed a half-maximal inhibitory concentration (IC50) of more than 50000 nM.
Regarding `Cc1cc(C)c(C#N)c(SCC(=O)c2ccc3c(c2)OCO3)n1`, the IC50 is more than 50000 nM.
The compound `O=C(Nc1ncc([N+](=O)[O-])s1)C1CC1` registered an IC50 of more than 50000 nM.

(Values after PubChem BioAssay AID1159565 (GlaxoSmithKline (GSK), 2015).)
